Values of other authors as cited in patent US20140128469A1, “[…]-BUTYL BUMETANIDE” (CONCERT PHARMACEUTICALS INC., priority 2011, published 2014).

What was measured:
[1] = biological target: T1, Na+K+2Cl— co-transporter (NKCC1) (Homo sapiens, UniProt P55011)
T1 sequence (P55011 1-1212): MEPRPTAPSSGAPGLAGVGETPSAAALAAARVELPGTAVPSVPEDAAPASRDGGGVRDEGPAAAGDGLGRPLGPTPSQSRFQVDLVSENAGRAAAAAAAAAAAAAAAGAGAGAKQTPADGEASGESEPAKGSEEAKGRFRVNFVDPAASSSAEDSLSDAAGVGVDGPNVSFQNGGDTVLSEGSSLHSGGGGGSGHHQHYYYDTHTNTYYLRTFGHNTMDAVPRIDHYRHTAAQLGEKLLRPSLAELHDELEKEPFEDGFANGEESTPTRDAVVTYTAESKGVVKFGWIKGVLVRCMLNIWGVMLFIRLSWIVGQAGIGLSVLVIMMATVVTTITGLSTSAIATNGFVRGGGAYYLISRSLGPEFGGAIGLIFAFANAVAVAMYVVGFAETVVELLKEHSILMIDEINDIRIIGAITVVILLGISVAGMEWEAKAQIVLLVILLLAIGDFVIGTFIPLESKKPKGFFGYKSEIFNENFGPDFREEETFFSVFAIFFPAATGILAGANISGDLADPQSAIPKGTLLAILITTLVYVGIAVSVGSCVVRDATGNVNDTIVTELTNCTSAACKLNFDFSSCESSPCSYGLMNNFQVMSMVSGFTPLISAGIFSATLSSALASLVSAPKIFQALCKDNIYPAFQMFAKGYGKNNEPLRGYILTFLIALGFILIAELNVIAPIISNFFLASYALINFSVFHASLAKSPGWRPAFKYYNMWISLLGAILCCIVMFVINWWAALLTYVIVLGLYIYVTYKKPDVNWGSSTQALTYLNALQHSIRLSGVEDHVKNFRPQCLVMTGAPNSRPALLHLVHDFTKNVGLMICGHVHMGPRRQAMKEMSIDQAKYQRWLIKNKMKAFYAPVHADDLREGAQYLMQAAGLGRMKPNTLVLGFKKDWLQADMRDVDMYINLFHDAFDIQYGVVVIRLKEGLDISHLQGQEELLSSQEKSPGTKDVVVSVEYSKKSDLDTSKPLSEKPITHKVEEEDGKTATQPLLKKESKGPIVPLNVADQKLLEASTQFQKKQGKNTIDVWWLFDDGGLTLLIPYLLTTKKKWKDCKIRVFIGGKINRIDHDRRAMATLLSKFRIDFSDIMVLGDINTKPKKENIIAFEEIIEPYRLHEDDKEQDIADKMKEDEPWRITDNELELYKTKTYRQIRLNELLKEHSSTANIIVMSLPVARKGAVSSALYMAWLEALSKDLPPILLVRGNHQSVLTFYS

[2] = biological target: T2, Na+K+2Cl— co-transporter (NKCC2) (Homo sapiens, UniProt Q13621)
T2 sequence (Q13621 1-1099): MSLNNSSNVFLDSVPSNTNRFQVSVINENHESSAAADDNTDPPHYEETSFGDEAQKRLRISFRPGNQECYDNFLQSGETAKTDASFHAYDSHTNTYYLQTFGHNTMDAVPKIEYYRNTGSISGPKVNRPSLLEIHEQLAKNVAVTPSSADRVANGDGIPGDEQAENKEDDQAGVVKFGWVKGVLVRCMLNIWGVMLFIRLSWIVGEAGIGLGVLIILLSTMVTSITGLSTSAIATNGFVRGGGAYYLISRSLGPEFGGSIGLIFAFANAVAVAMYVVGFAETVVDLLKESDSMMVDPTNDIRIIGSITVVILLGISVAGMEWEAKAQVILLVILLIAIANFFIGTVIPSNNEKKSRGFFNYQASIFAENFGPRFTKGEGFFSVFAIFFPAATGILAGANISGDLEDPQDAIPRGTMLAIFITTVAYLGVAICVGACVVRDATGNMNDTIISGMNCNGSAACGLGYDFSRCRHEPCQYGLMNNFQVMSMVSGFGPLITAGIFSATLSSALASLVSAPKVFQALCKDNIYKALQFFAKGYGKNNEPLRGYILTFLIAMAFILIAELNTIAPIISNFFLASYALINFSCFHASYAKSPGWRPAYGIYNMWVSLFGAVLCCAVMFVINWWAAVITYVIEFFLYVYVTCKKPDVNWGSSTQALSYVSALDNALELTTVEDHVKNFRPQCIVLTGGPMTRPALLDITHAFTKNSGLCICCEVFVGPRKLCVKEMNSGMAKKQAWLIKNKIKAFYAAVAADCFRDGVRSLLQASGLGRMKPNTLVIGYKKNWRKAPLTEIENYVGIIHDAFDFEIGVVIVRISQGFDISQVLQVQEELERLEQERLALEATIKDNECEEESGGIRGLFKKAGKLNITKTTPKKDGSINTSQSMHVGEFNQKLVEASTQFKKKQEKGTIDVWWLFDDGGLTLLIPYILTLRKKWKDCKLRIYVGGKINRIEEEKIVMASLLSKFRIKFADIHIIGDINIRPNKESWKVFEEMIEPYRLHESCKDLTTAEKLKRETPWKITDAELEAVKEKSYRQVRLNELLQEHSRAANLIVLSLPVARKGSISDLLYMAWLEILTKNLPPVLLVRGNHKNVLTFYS

[3] = system: GABAA
[4] = system: models of epilepsy
[5] = system: models of neuropathic and nociceptive pain; settings: in vivo
[6] = system: models of migraine; settings: in vivo
[7] = preclinical models
[8] = preclinical toxicology studies, see WO 2010/085352

**Q.** Which “action on NKCC1” value [1] does the source give for `CCCCN(CCCC)c1cc(C(=O)O)cc(S(N)(=O)=O)c1Oc1ccccc1` [N-butyl bumetanide] here?
**A.** does not act on

**Q.** What about the “action on NKCC2” value [2] of the same compound?
**A.** does not act on

**Q.** What about the GABAA modulation [3] of the same compound?
**A.** subtype-selective GABAA modulatory actions

**Q.** What about the amelioration of seizures ([4]; epilepsy models resistant to currently-marketed anti-epileptic drugs) of the same compound?
**A.** effective in ameliorating seizures

**Q.** And the “efficacy in models of epilepsy” value ([4]; in vivo)?
**A.** effective

**Q.** And the “efficacy in models of neuropathic and nociceptive pain” value [5]?
**A.** effective

**Q.** What about the “efficacy in models of migraine” value [6] of the same compound?
**A.** effective

**Q.** What about the diuresis [7] of the same compound?
**A.** does not cause diuresis

**Q.** And the therapeutic safety margin [8]?
**A.** large therapeutic safety margin
